From ChEMBL document CHEMBL1145498, “A systematic interaction map of validated kinase inhibitors with Ser/Thr kinases” (Proc Natl Acad Sci U S A, 2007)

Biological target: Epidermal growth factor receptor (Homo sapiens, UniProt P00533)
Assay: not given
Details: not given

IC50 | SMILES
7670 nM | O=c1ccc2ccc(O)c(O)c2o1 [DAPHNETIN]

System: KB
Assay: cells
Details: Homo sapiens

SMILES | IC50
CN1CCC(Nc2ncc3ncnc(Nc4ccc(F)c(Cl)c4)c3n2)CC1 [FALNIDAMOL] | 3200 nM

Biological target: Glycogen synthase kinase-3 beta (Homo sapiens, UniProt P49841)
Assay: not given
Details: not given

Chain of Glycogen synthase kinase-3 beta (P49841 whole entry, looked up): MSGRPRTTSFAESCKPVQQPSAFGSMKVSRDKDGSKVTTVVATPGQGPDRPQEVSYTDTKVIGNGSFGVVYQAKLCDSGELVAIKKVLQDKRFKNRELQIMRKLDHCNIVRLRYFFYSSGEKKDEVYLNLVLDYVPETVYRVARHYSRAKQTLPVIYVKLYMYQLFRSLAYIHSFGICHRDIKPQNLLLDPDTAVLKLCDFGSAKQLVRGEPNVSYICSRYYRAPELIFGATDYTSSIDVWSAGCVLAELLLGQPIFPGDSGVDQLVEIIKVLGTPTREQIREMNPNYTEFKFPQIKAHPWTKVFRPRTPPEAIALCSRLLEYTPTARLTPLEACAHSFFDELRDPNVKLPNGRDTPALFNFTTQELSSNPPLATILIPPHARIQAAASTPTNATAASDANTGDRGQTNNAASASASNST

SMILES | ΔTm
Cc1cncc2cccc(S(=O)(=O)N3CCCNC[C@@H]3C)c12 | 0.6 °C
NC(=O)c1ccc(-c2nc(-c3ccc4c(c3)OCCO4)c(-c3ccccn3)[nH]2)cc1 | 0.6 °C
NC1=NC(=O)/C(=C2\CCNC(=O)c3[nH]c(Br)cc32)N1 [HYMENIALDISINE] | 7.4 °C
O=c1ccc2ccc(O)c(O)c2o1 [DAPHNETIN] | 0.2 °C
CN1CCC(Nc2ncc3ncnc(Nc4ccc(F)c(Cl)c4)c3n2)CC1 [FALNIDAMOL] | 1.7 °C

Biological target: not listed separately
Assay: Binding affinity at ROCK
Details: not given

SMILES | Ki
Cc1cncc2cccc(S(=O)(=O)N3CCCNC[C@@H]3C)c12 | 1.6 nM

Biological target: Myosin light chain kinase, smooth muscle (Homo sapiens, UniProt Q15746)
Assay: Binding affinity at MLCK
Details: not given

SMILES | Ki
Cc1cncc2cccc(S(=O)(=O)N3CCCNC[C@@H]3C)c12 | 10100 nM

Biological target: Casein kinase I isoform gamma-1 (Homo sapiens) (UniProt Q9HCP0)
Assay: not given
Details: not given

Chain of Casein kinase I isoform gamma-1 (Homo sapiens) (Q9HCP0 whole entry, looked up, canonical isoform): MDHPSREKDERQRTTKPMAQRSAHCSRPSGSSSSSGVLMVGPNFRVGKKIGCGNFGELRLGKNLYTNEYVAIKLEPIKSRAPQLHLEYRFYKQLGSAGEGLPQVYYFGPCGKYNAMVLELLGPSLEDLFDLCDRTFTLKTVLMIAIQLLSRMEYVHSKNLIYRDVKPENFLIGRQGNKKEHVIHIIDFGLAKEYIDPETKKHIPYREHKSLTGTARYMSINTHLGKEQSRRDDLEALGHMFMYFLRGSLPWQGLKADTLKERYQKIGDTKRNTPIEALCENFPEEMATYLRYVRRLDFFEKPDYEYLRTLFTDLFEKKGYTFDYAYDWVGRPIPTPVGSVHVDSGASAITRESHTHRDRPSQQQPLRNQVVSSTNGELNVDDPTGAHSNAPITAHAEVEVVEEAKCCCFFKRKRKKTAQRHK

SMILES | ΔTm
Cc1cncc2cccc(S(=O)(=O)N3CCCNC[C@@H]3C)c12 | 0 °C
NC(=O)c1ccc(-c2nc(-c3ccc4c(c3)OCCO4)c(-c3ccccn3)[nH]2)cc1 | 0.4 °C
NC1=NC(=O)/C(=C2\CCNC(=O)c3[nH]c(Br)cc32)N1 [HYMENIALDISINE] | 5.7 °C
O=c1ccc2ccc(O)c(O)c2o1 [DAPHNETIN] | 0 °C
CN1CCC(Nc2ncc3ncnc(Nc4ccc(F)c(Cl)c4)c3n2)CC1 [FALNIDAMOL] | 0.4 °C

Biological target: Serine/threonine-protein kinase PAK 6 (Homo sapiens) (UniProt Q9NQU5)
Assay: not given
Details: not given

Chain of Serine/threonine-protein kinase PAK 6 (Homo sapiens) (Q9NQU5 whole entry, looked up): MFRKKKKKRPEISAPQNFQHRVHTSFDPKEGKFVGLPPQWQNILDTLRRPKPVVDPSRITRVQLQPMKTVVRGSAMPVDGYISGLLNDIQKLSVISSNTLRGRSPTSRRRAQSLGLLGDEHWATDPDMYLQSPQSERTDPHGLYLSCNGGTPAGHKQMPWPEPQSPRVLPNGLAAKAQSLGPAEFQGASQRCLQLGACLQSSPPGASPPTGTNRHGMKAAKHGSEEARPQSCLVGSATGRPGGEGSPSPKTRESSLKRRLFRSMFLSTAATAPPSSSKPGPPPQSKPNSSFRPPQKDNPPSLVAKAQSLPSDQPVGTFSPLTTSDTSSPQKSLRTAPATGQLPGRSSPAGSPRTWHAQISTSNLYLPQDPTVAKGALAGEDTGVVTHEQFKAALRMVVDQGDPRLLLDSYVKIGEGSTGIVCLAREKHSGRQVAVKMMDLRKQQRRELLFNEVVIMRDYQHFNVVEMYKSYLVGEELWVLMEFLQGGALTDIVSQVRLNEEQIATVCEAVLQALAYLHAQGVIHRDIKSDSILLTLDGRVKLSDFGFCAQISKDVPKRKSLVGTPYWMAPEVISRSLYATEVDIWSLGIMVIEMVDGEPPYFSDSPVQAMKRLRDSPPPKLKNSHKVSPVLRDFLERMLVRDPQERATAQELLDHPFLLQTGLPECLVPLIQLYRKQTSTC

SMILES | ΔTm
Cc1cncc2cccc(S(=O)(=O)N3CCCNC[C@@H]3C)c12 | 0.7 °C
NC(=O)c1ccc(-c2nc(-c3ccc4c(c3)OCCO4)c(-c3ccccn3)[nH]2)cc1 | 0 °C
NC1=NC(=O)/C(=C2\CCNC(=O)c3[nH]c(Br)cc32)N1 [HYMENIALDISINE] | 1.2 °C
O=c1ccc2ccc(O)c(O)c2o1 [DAPHNETIN] | -0.2 °C
CN1CCC(Nc2ncc3ncnc(Nc4ccc(F)c(Cl)c4)c3n2)CC1 [FALNIDAMOL] | 2.9 °C

Biological target: not listed separately
Assay: Binding affinity at PKA
Details: not given

SMILES | Ki
Cc1cncc2cccc(S(=O)(=O)N3CCCNC[C@@H]3C)c12 | 630 nM

Biological target: Cyclin-dependent kinase-like 1 (Homo sapiens) (UniProt Q00532)
Assay: not given
Details: not given

Chain of Cyclin-dependent kinase-like 1 (Homo sapiens) (Q00532 whole entry): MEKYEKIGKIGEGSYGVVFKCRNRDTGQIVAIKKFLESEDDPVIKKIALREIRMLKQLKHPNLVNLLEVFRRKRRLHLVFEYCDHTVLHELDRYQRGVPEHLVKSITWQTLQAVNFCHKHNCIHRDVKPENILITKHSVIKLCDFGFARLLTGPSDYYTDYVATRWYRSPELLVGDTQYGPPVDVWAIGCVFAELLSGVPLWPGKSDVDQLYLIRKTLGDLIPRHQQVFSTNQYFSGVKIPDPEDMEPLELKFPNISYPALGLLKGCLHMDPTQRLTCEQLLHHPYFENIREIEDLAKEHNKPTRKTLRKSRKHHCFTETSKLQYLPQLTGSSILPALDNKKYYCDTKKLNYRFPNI

SMILES | ΔTm
Cc1cncc2cccc(S(=O)(=O)N3CCCNC[C@@H]3C)c12 | 0.1 °C
NC(=O)c1ccc(-c2nc(-c3ccc4c(c3)OCCO4)c(-c3ccccn3)[nH]2)cc1 | -0.3 °C
NC1=NC(=O)/C(=C2\CCNC(=O)c3[nH]c(Br)cc32)N1 [HYMENIALDISINE] | 0.6 °C
O=c1ccc2ccc(O)c(O)c2o1 [DAPHNETIN] | 0.3 °C
CN1CCC(Nc2ncc3ncnc(Nc4ccc(F)c(Cl)c4)c3n2)CC1 [FALNIDAMOL] | 3.2 °C

Biological target: TGF-beta receptor type-1 (Homo sapiens, UniProt P36897)
Assay: not given
Details: not given

Chain of TGF-beta receptor type-1 (P36897 whole entry): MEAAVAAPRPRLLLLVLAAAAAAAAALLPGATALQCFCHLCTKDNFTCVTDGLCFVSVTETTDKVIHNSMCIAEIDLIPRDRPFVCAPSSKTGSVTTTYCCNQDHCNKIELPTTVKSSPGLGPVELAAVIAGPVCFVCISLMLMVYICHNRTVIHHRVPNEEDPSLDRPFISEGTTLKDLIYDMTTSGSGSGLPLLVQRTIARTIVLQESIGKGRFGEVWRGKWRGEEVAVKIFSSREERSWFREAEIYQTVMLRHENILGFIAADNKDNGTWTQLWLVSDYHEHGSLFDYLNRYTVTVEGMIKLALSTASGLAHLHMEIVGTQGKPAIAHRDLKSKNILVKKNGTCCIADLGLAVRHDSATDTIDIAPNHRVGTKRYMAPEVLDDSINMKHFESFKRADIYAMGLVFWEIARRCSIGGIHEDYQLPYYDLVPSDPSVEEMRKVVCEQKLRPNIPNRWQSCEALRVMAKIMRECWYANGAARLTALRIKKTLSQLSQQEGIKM

SMILES | IC50
NC(=O)c1ccc(-c2nc(-c3ccc4c(c3)OCCO4)c(-c3ccccn3)[nH]2)cc1 | 500 nM

System: KB
Assay: cells
Details: Homo sapiens
Remark: another data set of the same source

SMILES | IC50
CN1CCC(Nc2ncc3ncnc(Nc4ccc(F)c(Cl)c4)c3n2)CC1 [FALNIDAMOL] | 1.82 nM

Biological target: Serine/threonine-protein kinase VRK2 (Homo sapiens) (UniProt Q86Y07)
Assay: not given
Details: not given

Chain of Serine/threonine-protein kinase VRK2 (Homo sapiens) (Q86Y07 whole entry): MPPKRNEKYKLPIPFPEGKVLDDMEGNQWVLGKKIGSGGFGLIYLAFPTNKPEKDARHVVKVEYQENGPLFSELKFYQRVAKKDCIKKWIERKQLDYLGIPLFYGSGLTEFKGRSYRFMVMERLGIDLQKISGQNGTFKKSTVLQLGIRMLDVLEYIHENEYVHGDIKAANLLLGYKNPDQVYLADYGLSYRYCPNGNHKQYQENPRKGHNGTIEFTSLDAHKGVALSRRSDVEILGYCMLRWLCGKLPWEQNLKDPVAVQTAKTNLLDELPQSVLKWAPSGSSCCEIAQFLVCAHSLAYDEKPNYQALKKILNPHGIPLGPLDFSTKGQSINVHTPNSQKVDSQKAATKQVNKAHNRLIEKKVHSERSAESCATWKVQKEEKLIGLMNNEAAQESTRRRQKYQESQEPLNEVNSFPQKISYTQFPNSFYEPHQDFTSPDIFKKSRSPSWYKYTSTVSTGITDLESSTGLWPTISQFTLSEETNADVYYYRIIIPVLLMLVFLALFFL

SMILES | ΔTm
Cc1cncc2cccc(S(=O)(=O)N3CCCNC[C@@H]3C)c12 | 1.2 °C
NC(=O)c1ccc(-c2nc(-c3ccc4c(c3)OCCO4)c(-c3ccccn3)[nH]2)cc1 | 0.5 °C
NC1=NC(=O)/C(=C2\CCNC(=O)c3[nH]c(Br)cc32)N1 [HYMENIALDISINE] | 0.8 °C
O=c1ccc2ccc(O)c(O)c2o1 [DAPHNETIN] | -0.1 °C

Biological target: Serine/threonine-protein kinase 16 (Homo sapiens) (UniProt O75716)
Assay: not given
Details: not given

Chain of Serine/threonine-protein kinase 16 (Homo sapiens) (O75716 whole entry): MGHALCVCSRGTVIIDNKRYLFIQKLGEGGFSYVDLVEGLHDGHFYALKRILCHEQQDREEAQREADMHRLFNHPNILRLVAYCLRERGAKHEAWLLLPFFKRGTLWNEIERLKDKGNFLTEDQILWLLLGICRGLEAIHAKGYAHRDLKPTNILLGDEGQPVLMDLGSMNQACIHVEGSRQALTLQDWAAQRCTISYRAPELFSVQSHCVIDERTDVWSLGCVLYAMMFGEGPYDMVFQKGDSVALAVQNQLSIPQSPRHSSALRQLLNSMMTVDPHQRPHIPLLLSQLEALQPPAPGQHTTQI

SMILES | ΔTm
Cc1cncc2cccc(S(=O)(=O)N3CCCNC[C@@H]3C)c12 | 1.1 °C
NC(=O)c1ccc(-c2nc(-c3ccc4c(c3)OCCO4)c(-c3ccccn3)[nH]2)cc1 | 0.1 °C
NC1=NC(=O)/C(=C2\CCNC(=O)c3[nH]c(Br)cc32)N1 [HYMENIALDISINE] | 1.5 °C
O=c1ccc2ccc(O)c(O)c2o1 [DAPHNETIN] | 0.1 °C

Biological target: not listed separately
Assay: Binding affinity at PKC
Details: not given

SMILES | Ki
Cc1cncc2cccc(S(=O)(=O)N3CCCNC[C@@H]3C)c12 | 9270 nM

Biological target: Calcium/calmodulin-dependent protein kinase type II subunit beta (Homo sapiens) (UniProt Q13554)
Assay: not given
Details: not given

Chain of Calcium/calmodulin-dependent protein kinase type II subunit beta (Homo sapiens) (Q13554 whole entry): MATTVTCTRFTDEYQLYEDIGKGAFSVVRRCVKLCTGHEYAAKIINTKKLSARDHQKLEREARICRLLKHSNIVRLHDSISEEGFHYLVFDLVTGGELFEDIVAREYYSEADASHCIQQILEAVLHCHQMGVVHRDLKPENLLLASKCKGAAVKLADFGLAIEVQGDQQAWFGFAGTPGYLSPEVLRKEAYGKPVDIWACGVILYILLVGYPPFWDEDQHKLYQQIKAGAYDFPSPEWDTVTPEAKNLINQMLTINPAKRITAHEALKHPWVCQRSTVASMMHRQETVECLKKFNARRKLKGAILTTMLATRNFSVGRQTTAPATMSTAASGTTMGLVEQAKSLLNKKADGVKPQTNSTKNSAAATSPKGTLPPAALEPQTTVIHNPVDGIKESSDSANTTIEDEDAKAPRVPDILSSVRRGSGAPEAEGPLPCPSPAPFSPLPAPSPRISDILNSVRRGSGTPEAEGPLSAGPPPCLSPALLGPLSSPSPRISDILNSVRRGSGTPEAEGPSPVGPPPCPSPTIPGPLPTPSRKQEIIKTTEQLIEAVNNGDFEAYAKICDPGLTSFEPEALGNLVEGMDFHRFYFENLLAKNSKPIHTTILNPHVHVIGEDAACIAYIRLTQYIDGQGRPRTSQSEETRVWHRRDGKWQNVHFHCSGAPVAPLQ

SMILES | ΔTm
Cc1cncc2cccc(S(=O)(=O)N3CCCNC[C@@H]3C)c12 | 1.1 °C
NC(=O)c1ccc(-c2nc(-c3ccc4c(c3)OCCO4)c(-c3ccccn3)[nH]2)cc1 | 1 °C
NC1=NC(=O)/C(=C2\CCNC(=O)c3[nH]c(Br)cc32)N1 [HYMENIALDISINE] | 0.4 °C
O=c1ccc2ccc(O)c(O)c2o1 [DAPHNETIN] | 0.1 °C
CN1CCC(Nc2ncc3ncnc(Nc4ccc(F)c(Cl)c4)c3n2)CC1 [FALNIDAMOL] | -0.4 °C

System: not listed separately
Assay: Inhibition of Cdk2/cyclin B
Details: not given

IC50 | SMILES
40 nM | NC1=NC(=O)/C(=C2\CCNC(=O)c3[nH]c(Br)cc32)N1 [HYMENIALDISINE]

Biological target: T1, Serine/threonine-protein kinase PLK4 (Homo sapiens) (UniProt O00444)
T1 sequence (whole entry): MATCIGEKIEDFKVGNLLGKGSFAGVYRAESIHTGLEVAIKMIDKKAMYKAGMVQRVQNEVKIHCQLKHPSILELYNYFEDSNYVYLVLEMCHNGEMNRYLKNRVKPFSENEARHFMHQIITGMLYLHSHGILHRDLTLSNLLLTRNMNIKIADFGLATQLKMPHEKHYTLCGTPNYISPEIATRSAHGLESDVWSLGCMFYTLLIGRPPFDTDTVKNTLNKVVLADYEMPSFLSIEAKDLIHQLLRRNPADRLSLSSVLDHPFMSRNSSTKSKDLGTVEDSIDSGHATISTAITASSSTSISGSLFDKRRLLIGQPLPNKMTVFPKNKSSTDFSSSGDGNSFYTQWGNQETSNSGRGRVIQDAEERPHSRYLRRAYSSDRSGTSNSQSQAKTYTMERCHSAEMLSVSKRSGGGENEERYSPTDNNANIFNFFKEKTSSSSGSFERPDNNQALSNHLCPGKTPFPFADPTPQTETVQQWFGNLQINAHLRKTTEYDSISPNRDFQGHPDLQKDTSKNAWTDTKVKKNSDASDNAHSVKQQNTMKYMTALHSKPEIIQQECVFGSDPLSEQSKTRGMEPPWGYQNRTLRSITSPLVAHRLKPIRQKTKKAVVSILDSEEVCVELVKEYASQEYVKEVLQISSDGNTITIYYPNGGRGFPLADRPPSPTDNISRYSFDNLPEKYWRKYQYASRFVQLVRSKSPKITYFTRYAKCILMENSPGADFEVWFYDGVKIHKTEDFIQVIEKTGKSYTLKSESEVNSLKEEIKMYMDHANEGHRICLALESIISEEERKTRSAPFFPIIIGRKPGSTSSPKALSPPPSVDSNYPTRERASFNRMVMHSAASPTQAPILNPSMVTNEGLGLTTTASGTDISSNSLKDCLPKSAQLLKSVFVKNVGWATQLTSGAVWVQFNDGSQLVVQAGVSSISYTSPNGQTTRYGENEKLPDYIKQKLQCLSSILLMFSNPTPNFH
Assay: not given
Details: not given

SMILES | ΔTm
Cc1cncc2cccc(S(=O)(=O)N3CCCNC[C@@H]3C)c12 | 7 °C
NC(=O)c1ccc(-c2nc(-c3ccc4c(c3)OCCO4)c(-c3ccccn3)[nH]2)cc1 | 0.1 °C
NC1=NC(=O)/C(=C2\CCNC(=O)c3[nH]c(Br)cc32)N1 [HYMENIALDISINE] | 3 °C
O=c1ccc2ccc(O)c(O)c2o1 [DAPHNETIN] | 0.3 °C
CN1CCC(Nc2ncc3ncnc(Nc4ccc(F)c(Cl)c4)c3n2)CC1 [FALNIDAMOL] | 0.3 °C

Biological target: Serine/threonine-protein kinase PAK 4 (Homo sapiens) (UniProt O96013)
Assay: not given
Details: not given

Chain of Serine/threonine-protein kinase PAK 4 (Homo sapiens) (O96013 whole entry, looked up): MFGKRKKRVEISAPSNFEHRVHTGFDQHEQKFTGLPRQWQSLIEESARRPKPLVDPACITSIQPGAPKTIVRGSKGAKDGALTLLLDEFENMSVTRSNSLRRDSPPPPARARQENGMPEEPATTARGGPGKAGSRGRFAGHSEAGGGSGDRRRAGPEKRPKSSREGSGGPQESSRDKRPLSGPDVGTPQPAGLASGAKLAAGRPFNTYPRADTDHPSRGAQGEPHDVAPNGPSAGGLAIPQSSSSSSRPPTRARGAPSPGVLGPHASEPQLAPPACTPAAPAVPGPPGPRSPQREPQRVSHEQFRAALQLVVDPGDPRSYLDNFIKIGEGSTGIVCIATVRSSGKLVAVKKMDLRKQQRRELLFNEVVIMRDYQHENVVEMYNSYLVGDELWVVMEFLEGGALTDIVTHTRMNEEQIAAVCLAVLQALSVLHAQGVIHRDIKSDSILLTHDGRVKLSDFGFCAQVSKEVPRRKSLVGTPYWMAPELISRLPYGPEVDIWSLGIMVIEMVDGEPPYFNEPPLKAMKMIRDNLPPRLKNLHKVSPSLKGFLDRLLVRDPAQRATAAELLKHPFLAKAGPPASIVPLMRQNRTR

SMILES | ΔTm
Cc1cncc2cccc(S(=O)(=O)N3CCCNC[C@@H]3C)c12 | 0.7 °C
NC(=O)c1ccc(-c2nc(-c3ccc4c(c3)OCCO4)c(-c3ccccn3)[nH]2)cc1 | 0.9 °C
NC1=NC(=O)/C(=C2\CCNC(=O)c3[nH]c(Br)cc32)N1 [HYMENIALDISINE] | 1.6 °C
O=c1ccc2ccc(O)c(O)c2o1 [DAPHNETIN] | 0 °C
CN1CCC(Nc2ncc3ncnc(Nc4ccc(F)c(Cl)c4)c3n2)CC1 [FALNIDAMOL] | 1.5 °C

System: NT2
Assay: Inhibition of lysophosphatidic acid-induced MARCKS phosphorylation in human NT2 cells
Format: functional, cell-based
Details: not given

SMILES | IC50
Cc1cncc2cccc(S(=O)(=O)N3CCCNC[C@@H]3C)c12 | 2500 nM

Biological target: Serine/threonine-protein kinase 38 (Homo sapiens) (UniProt Q15208)
Assay: not given
Details: not given

Chain of Serine/threonine-protein kinase 38 (Homo sapiens) (Q15208 2-465 limits assumed): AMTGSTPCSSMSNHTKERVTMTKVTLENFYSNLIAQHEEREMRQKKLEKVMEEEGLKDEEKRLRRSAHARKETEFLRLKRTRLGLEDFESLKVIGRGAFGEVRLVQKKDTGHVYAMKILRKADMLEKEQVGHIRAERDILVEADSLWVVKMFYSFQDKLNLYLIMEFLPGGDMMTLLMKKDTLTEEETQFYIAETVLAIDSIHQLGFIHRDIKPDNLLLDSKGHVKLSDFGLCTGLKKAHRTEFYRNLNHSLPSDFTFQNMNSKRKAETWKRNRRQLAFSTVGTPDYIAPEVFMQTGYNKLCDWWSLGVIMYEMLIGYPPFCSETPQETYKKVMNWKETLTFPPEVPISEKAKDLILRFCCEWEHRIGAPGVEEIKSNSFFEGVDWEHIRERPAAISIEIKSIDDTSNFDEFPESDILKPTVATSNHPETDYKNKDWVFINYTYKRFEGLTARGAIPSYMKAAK

SMILES | ΔTm
Cc1cncc2cccc(S(=O)(=O)N3CCCNC[C@@H]3C)c12 | 0.6 °C
NC(=O)c1ccc(-c2nc(-c3ccc4c(c3)OCCO4)c(-c3ccccn3)[nH]2)cc1 | 0.5 °C
NC1=NC(=O)/C(=C2\CCNC(=O)c3[nH]c(Br)cc32)N1 [HYMENIALDISINE] | 1 °C
O=c1ccc2ccc(O)c(O)c2o1 [DAPHNETIN] | 0.3 °C
